Data from article PMC8151276, “An Integrated Approach toward NanoBRET Tracers for Analysis of GPCR Ligand Engagement” (Molecules, 2021).

Tests used:
Type in all cases: binding
FZD5 = molecular target: T1, FZD5 (Homo sapiens, UniProt Q13467); experiment: NanoBRET screen HiBiT-FZD5 in HEK293; conditions: FZD5
T1 construct: purchased Promega (in-house HiBiT-GPCR construct library, NanoBRET)
Protocol: (§1) Each tracer candidate was screened across the entire library of HiBiT-GPCR constructs using NanoBRET as the detection modality. As depicted in Figure 4A, the specificity of interactions was evaluated through decrease in BRET due to competitive displacement of a bound tracer by excess parental compound. Each tracer was analyzed for binding to each HiBiT-GPCR fusion in the absence and in the presence of competing parental compound. Briefly, HEK293 cells were transfected with HiBiT-GPCR constructs diluted into promoterless DNA to reduce expression and maximize translocation to the cell surface. Each tracer candidate was then screened at concentrations of 1 μM and 0.1 μM across cells expressing these fusions. Cells were treated for 1.5 h with tracer either alone or in the presence of 20 μM competing parental compound (i.e., control). BRET was measured upon addition of purified LgBiT and subsequent complementation with HiBiT genetically fused to a GPCR. The specificity of interactions was assessed through a decrease in BRET signal due to competitive displacement of the bound tracer. To further gauge the robustness of these interactions, the fold response over the control (i.e., BRETtracer/BRETcontrol) was calculated. We chose a 1.5-fold response, which translates to ≥7-fold signal over noise as the minimal threshold required to score an interaction as positive. […]. Below we highlight the screening results obtained for our exemplary fluorescent tracers based on Clozapine, Amitriptyline and AZD1283.
(§2) HiBiT-GPCR DNA constructs were diluted in 10 mM Tris pH 8 to a final concentration of 0.01 μg/μL, arrayed in 96-well plates and stored at −20 °C. For transfection, HEK293 cells were suspended in Opti-MEM (without phenol red) supplemented with 2% fetal bovine serum (Seradigm) and 100 units/mL penicillin–streptomycin (Gibco) at a final concentration of 220,000 cells/mL and dispensed into white 96-well plates at 90 μL/well. Subsequent transfections and screens were carried using an Agilent Bravo Automated Liquid Handling Platform. First, the 96-well HiBiT DNA arrays were diluted 25-fold in Opti-MEM (without serum or phenol red) to a final concentration of 0.0004 μg/μL and 20 μL of the diluted DNAs were transferred into new 96-well plates. Next, promoterless carrier DNA (1 μg/μL) was diluted 25-fold (0.04 μg/μL) and then dispensed into the diluted arrays at 20 μL/well. Following brief mixing, Viafect transfection reagent (Promega) diluted 16-fold into Opti-MEM was dispensed into the plates at 40 μL/well. After mixing by pipetting, plates were incubated for 10 min on the pipetting station deck. The DNA-transfection reagent complexes were then added to plates containing cells. To facilitate the screen, 10 μL of DNA-transfection reagent complexes were added in duplicates to the top 4 and bottom 4 rows, resulting in two identical 48-well arrays per plate. Plates with transfected cells were incubated for 18–20 h at 37 °C/5% CO2. A screen of each tracer across the entire library using two different concentrations requires duplicate plates of transfected cells. Depending on the number of tracers being screened, transfections can be scaled up using the same ratios. The next day, for each tracer, four 20× screening solutions in tracer dilution buffer (Promega) were prepared: two duplicates at final concentration of 20 μM and two duplicates at a final concentration of 2 μM. A competing unmodified compound was added to one of each duplicate at a final concentration of 400 μM. The four resulting solutions were diluted 4-fold in Opti-MEM without serum or phenol red to generate 5× solutions (5 µM and 0.5 µM tracer +/− 100 μM competing compound). To screen the library, a BioTek MultiFlo FX liquid dispenser was used to dispense 22.5 µL of tracer solution to the top 4 rows and 22.5 µL tracer + competing compound solution to the 4 bottom rows. Plates were briefly mixed on an orbital shaker and incubated for 1.5 h at room temperature. […]

GABBR2 = molecular target: T2, GABBR2 (Homo sapiens, UniProt O75899); experiment: NanoBRET screen HiBiT-GABBR2 in HEK293; conditions: GABBR2
T2 construct: purchased Promega (in-house HiBiT-GPCR construct library, NanoBRET)
T2 sequence (O75899 42-941): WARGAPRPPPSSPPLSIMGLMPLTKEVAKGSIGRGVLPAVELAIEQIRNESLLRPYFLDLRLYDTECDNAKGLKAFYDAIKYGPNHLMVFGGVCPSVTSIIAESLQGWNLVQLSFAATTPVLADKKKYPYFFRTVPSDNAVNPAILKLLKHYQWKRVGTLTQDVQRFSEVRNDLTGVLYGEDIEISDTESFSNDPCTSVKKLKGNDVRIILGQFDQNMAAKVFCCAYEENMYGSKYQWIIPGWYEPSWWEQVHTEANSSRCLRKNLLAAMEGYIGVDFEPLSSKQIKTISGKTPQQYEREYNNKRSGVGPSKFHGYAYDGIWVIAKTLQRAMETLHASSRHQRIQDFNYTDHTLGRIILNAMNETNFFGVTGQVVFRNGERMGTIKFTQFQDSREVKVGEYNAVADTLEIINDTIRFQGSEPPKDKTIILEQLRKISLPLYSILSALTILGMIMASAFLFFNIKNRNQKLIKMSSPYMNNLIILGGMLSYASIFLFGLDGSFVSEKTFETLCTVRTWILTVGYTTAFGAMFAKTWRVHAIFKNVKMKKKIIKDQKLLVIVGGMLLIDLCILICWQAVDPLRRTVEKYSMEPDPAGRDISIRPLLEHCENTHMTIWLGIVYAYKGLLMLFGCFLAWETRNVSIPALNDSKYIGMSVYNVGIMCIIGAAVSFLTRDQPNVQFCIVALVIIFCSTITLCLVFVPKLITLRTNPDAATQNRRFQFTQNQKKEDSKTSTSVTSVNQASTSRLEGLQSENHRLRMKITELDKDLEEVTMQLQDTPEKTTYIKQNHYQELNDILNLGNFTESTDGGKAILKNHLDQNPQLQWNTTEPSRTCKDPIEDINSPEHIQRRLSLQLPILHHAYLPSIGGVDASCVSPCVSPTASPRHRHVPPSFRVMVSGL
Protocol: as §1, §2

FPR3 = molecular target: T3, FPR3 (Homo sapiens, UniProt P25089); experiment: NanoBRET screen HiBiT-FPR3 in HEK293; conditions: FPR3
T3 construct: purchased Promega (in-house HiBiT-GPCR construct library, NanoBRET)
T3 sequence (P25089 1-353): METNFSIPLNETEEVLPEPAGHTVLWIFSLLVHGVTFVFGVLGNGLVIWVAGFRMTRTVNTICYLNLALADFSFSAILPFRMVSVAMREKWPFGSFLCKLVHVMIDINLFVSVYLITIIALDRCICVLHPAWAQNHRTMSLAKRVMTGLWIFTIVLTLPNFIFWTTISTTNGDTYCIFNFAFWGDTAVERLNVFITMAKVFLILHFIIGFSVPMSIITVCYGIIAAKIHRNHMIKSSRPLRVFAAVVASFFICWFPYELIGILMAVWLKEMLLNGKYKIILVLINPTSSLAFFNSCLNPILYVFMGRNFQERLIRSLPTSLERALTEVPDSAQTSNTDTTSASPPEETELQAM
Protocol: as §1, §2

SSTR4 = molecular target: T4, SSTR4 (Homo sapiens, UniProt P31391); experiment: NanoBRET screen HiBiT-SSTR4 in HEK293; conditions: SSTR4
T4 construct: purchased Promega (in-house HiBiT-GPCR construct library, NanoBRET)
T4 sequence (P31391 whole entry): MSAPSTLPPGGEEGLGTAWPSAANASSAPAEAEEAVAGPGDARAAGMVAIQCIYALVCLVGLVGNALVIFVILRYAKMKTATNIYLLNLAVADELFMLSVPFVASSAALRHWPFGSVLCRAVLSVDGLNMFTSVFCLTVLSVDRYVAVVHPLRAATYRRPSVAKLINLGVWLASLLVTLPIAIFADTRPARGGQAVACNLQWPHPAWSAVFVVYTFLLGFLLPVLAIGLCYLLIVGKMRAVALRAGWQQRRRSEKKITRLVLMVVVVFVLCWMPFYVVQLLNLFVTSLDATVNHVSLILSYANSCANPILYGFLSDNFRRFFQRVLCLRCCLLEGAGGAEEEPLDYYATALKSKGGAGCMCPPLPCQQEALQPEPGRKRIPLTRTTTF
Protocol: as §1, §2

T1 sequence (Q13467 27-585): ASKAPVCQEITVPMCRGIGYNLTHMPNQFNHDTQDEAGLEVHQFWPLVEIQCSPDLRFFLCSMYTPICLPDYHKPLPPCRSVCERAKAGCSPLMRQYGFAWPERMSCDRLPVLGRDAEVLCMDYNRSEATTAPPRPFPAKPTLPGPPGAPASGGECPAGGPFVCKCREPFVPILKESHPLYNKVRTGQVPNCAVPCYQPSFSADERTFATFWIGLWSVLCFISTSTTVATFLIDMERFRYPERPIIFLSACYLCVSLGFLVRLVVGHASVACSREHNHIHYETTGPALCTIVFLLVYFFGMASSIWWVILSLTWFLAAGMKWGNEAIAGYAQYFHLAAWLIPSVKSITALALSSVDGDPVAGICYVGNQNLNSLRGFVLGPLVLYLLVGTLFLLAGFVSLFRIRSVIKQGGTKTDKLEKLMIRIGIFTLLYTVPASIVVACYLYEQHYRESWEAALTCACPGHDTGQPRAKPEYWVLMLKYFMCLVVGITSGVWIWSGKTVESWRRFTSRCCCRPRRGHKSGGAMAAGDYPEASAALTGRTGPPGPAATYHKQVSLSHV

CCCn1c(=O)c2[nH]c(-c3ccc(OCC(=O)NCCNC(=O)CCOCCNC(=O)c4ccc(CNC(=O)CCc5ccc6n5[B-](F)(F)[N+]5=C(c7ccc[nH]7)C=CC5=C6)cc4)cc3)nc2n(CCC)c1=O [XAC-3-NB590]
NanoBRET Fold Response (FZD5; tracer 0.1μM): 1.13
NanoBRET Fold Response (FZD5; tracer 1μM): 0.95
NanoBRET Fold Response (GABBR2; tracer 0.1μM): 1.02
NanoBRET Fold Response (GABBR2; tracer 1μM): 1.11
NanoBRET Fold Response (FPR3; tracer 0.1μM): 0.78
NanoBRET Fold Response (FPR3; tracer 1μM): 1.04
NanoBRET Fold Response (SSTR4; tracer 0.1μM): 1.01
NanoBRET Fold Response (SSTR4; tracer 1μM): 0.93
